What follows are compounds tested against ADAMTS4 (Homo sapiens (Human), UniProt O75173) (assay: Selectivity assay for ADAMTS-7 modulators: ADAMTS4 (FRET substrate)). Conditions: ADAMTS4 (R&D 4307-AD) 50 nM, substrate Dabcyl-EEVKAKVQPY-Glu(Edans)-NH2 1 μM, 120 min, 32° C.
Assay type: biochemical
Outline: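 Activity read as rising fluorescence after a FRET substrate is cleaved by human ADAMTS4, with reactions started by substrate addition to wells holding compound or DMSO. Percent inhibition plotted against concentration gave IC50.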

Chain of ADAMTS4 (O75173 213-685): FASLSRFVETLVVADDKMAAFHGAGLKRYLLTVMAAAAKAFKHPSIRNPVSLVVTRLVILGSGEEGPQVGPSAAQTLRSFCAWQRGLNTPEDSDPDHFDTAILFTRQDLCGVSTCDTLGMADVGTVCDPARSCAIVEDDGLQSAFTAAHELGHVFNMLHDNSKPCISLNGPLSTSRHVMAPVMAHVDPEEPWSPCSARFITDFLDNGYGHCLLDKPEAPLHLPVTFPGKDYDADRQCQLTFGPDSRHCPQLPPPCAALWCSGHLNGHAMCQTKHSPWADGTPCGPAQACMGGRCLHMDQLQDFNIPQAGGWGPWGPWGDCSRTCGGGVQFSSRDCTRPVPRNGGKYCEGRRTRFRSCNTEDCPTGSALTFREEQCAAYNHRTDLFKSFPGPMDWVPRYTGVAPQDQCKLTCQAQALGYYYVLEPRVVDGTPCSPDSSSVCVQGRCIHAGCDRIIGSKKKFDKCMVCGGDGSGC

Row | Structure (SMILES) | IC50
1 | COc1ccc(C(=O)NC[C@@]2(C3CC3)NC(=O)NC2=O)c(-c2ccc(C(F)(F)F)cc2)c1 [Example 107, N-{[(4R)-4-Cyclopropyl-2,5-Dioxoimidazolidin-4-Yl]Methyl}-5-Methoxy-4′-(Trifluoromethyl)[Biphenyl]-2-Carboxamide] | 6.2 µM
2 | O=C1NC(=O)[C@](CNC(=O)c2ccc(C(F)(F)F)cc2-c2ccc(C3CC3)cc2)(C2CC2)N1 [Example 108, 4′-Cyclopropyl-N-{[(4R)-4-Cyclopropyl-2,5-Dioxoimidazolidin-4-Yl]Methyl}-5-(Trifluoromethyl)[Biphenyl]-2-Carboxamide] | 19 µM
3 | Cc1cccc(C(=O)NC[C@@]2(C3CC3)NC(=O)NC2=O)c1-c1ccc(C(F)(F)F)cc1 [Example 109, N-{[(4R)-4-Cyclopropyl-2,5-Dioxoimidazolidin-4-Yl]Methyl}-6-Methyl-4′-(Trifluoromethyl)[Biphenyl]-2-Carboxamide] | 8.7 µM
4 | CCc1ccc(-c2cc(F)ccc2C(=O)NC[C@@]2(C3CC3)NC(=O)NC2=O)cc1 [Example 110, N-{[(4R)-4-Cyclopropyl-2,5-Dioxoimidazolidin-4-Yl]Methyl}-4′-Ethyl-5-Fluoro[Biphenyl]-2-Carboxamide] | 7.9 µM
5 | O=C1NC(=O)[C@](CNC(=O)c2ccccc2-c2ccc(C3(C(F)(F)F)CC3)cc2)(C2CC2)N1 [Example 115, N-{[(4R)-4-Cyclopropyl-2,5-Dioxoimidazolidin-4-Yl]Methyl}-4′-[1-(Trifluoromethyl)Cyclopropyl][Biphenyl]-2-Carboxamide] | 7.8 µM
6 | O=C1NC(=O)[C@](CNC(=O)c2ccc(F)cc2-c2ccc(C(F)(F)F)cc2)(C2CC2)N1 [Example 116, N-{[(4R)-4-Cyclopropyl-2,5-Dioxoimidazolidin-4-Yl]Methyl}-5-Fluoro-4′-(Trifluoromethyl)[Biphenyl]-2-Carboxamide] | 12 µM
7 | O=C1NC(=O)[C@](CNC(=O)c2ccc(C(F)(F)F)cc2-c2ccc(C(F)(F)F)cc2)(C2CC2)N1 [Example 117, N-{[(4R)-4-Cyclopropyl-2,5-Dioxoimidazolidin-4-Yl]Methyl}-4′,5-Bis(Trifluoromethyl)[Biphenyl]-2-Carboxamide] | 61 µM
8 | O=C1NC(=O)[C@](CNC(=O)c2cc(F)ccc2-c2ccc(C(F)(F)F)cc2)(C2CC2)N1 [Example 121, N-{[(4R)-4-Cyclopropyl-2,5-Dioxoimidazolidin-4-Yl]Methyl}-4-Fluoro-4′-(Trifluoromethyl)[Biphenyl]-2-Carboxamide] | 5.9 µM
9 | CC(C)(C#N)c1ccc(-c2ccccc2C(=O)NC[C@@]2(C3CC3)NC(=O)NC2=O)cc1 [Example 123, 4′-(2-Cyanopropan-2-Yl)-N-{[(4R)-4-Cyclopropyl-2,5-Dioxoimidazolidin-4-Yl]Methyl}[Biphenyl]-2-Carboxamide] | 19 µM
10 | CC(C)(C)c1ccc(-c2cc(F)ccc2C(=O)NC[C@@]2(C3CC3)NC(=O)NC2=O)cc1 [Example 124, 4′-Tert-Butyl-N-{[(4R)-4-Cyclopropyl-2,5-Dioxoimidazolidin-4-Yl]Methyl}-5-Fluoro[Biphenyl]-2-Carboxamide] | 42 µM
11 | O=C1NC(=O)[C@](CNC(=O)c2ccc(F)cc2-c2ccc(Cl)cc2)(C2CC2)N1 [Example 126, 4′-Chloro-N-{[(4R)-4-Cyclopropyl-2,5-Dioxoimidazolidin-4-Yl]Methyl}-5-Fluoro[Biphenyl]-2-Carboxamide] | 11 µM
12 | O=C1NC(=O)[C@](CNC(=O)c2ccc(F)cc2-c2ccc(F)cc2)(C2CC2)N1 [Example 128, N-{[(4R)-4-Cyclopropyl-2,5-Dioxoimidazolidin-4-Yl]Methyl}-4′,5-Difluoro[Biphenyl]-2-Carboxamide] | 13 µM
13 | O=C1NC(=O)[C@](CNC(=O)c2ccccc2-c2ccccc2)(C2CC2)N1 [Example 131, N-{[(4R)-4-Cyclopropyl-2,5-Dioxoimidazolidin-4-Yl]Methyl}[Biphenyl]-2-Carboxamide] | 8.7 µM
14 | Cc1ccc(-c2ncccc2C(=O)NC[C@@]2(C3CC3)NC(=O)NC2=O)cc1 [Example 132, N-{[(4R)-4-Cyclopropyl-2,5-Dioxoimidazolidin-4-Yl]Methyl}-2-(4-Methylphenyl)Nicotinamide] | 36 µM
15 | Cc1ccc(C(=O)NCC2(c3nccn3C)NC(=O)NC2=O)c(-c2ccc(C3CC3(F)F)cc2)c1 (stereo not drawn) [Example 135, 4′-(2,2-Difluorocyclopropyl)-5-Methyl-N-{[4-(1-Methyl-1H-Imidazol-2-Yl)-2,5-Dioxoimidazolidin-4-Yl]Methyl}[1,1′-Biphenyl]-2-Carboxamide] | 1.3 µM
16 | Cc1ccc(C(=O)NC[C@@]2(C3CC3)NC(=O)NC2=O)c(-c2ccc(C3CC3(F)F)cc2)c1 (stereo partly drawn) [Example 136, N-{[(4R)-4-Cyclopropyl-2,5-Dioxoimidazolidin-4-Yl]Methyl}-4′-(2,2-Difluorocyclopropyl)-5-Methyl[1,1′-Biphenyl]-2-Carboxamide] | 7.1 µM
17 | Cn1ccnc1C1(CNC(=O)c2cc(F)ccc2-c2ccc(C3CC3(F)F)cc2)NC(=O)NC1=O (stereo not drawn) [Example 139, 4′-(2,2-Difluorocyclopropyl)-4-Fluoro-N-{[4-(1-Methyl-1H-Imidazol-2-Yl)-2,5-Dioxoimidazolidin-4-Yl]Methyl}[1,1′-Biphenyl]-2-Carboxamide] | 2.1 µM
18 | O=C1NC(=O)[C@](CNC(=O)c2cc(F)ccc2-c2ccc(C3CC3(F)F)cc2)(C2CC2)N1 (stereo partly drawn) [Example 140, N-{[(4R)-4-Cyclopropyl-2,5-Dioxoimidazolidin-4-Yl]Methyl}-4′-(2,2-Difluorocyclopropyl)-4-Fluoro[1,1′-Biphenyl]-2-Carboxamide] | 11 µM
19 | Cn1ccnc1C1(CNC(=O)c2ccc(F)cc2-c2ccc(C3CC3(F)F)cc2)NC(=O)NC1=O (stereo not drawn) [Example 141, 4′-(2,2-Difluorocyclopropyl)-5-Fluoro-N-{[4-(1-Methyl-1H-Imidazol-2-Yl)-2,5-Dioxoimidazolidin-4-Yl]Methyl}[1,1′-Biphenyl]-2-Carboxamide] | 3.6 µM
20 | O=C1NC(=O)[C@](CNC(=O)c2ccc(F)cc2-c2ccc(C3CC3(F)F)cc2)(C2CC2)N1 (stereo partly drawn) [Example 142, N-{[(4R)-4-Cyclopropyl-2,5-Dioxoimidazolidin-4-Yl]Methyl}-4′-(2,2-Difluorocyclopropyl)-5-Fluoro[1,1′-Biphenyl]-2-Carboxamide] | 18 µM
21 | Cn1ccnc1C1(CNC(=O)c2cc(F)c(F)cc2-c2ccc(C3CC3(F)F)cc2)NC(=O)NC1=O (stereo not drawn) [Example 143, 4′-(2,2-Difluorocyclopropyl)-4,5-Difluoro-N-{[4-(1-Methyl-1H-Imidazol-2-Yl)-2,5-Dioxoimidazolidin-4-Yl]Methyl}[1,1′-Biphenyl]-2-Carboxamide] | 4.6 µM

The next lines start with the values.

Row | IC50 | Structure (SMILES)
22 | 7.9 µM | O=C1NC(=O)[C@](CNC(=O)c2ccccc2-c2ccc(C3CC3(F)F)cc2)(C2CC2)N1 (stereo partly drawn) [Example 111, N-{[(4R)-4-Cyclopropyl-2,5-Dioxoimidazolidin-4-Yl]Methyl}-4′-(2,2-Difluorocyclopropyl)[Biphenyl]-2-Carboxamide]
23 | 2.2 µM | O=C1NC(=O)[C@](CNC(=O)c2ccccc2-c2ccc(C3CCC3)cc2)(C2CC2)N1 [Example 112, 4′-Cyclobutyl-N-{[(4R)-4-Cyclopropyl-2,5-Dioxoimidazolidin-4-Yl]Methyl}[Biphenyl]-2-Carboxamide]
24 | 12 µM | CC(C)(C)c1ccc(-c2ccccc2C(=O)NC[C@@]2(C3CC3)NC(=O)NC2=O)cc1 [Example 113, 4′-Tert-Butyl-N-{[(4R)-4-Cyclopropyl-2,5-Dioxoimidazolidin-4-Yl]Methyl}[Biphenyl]-2-Carboxamide]
25 | 10.2 µM | O=C1NC(=O)[C@](CNC(=O)c2ccccc2-c2ccc(C(F)(F)F)cc2)(C2CC2)N1 [Example 114, N-{[(4R)-4-Cyclopropyl-2,5-Dioxoimidazolidin-4-Yl]Methyl}-4′-(Trifluoromethyl)[Biphenyl]-2-Carboxamide]
26 | 7.6 µM | CC(C)c1ccc(-c2ccccc2C(=O)NC[C@@]2(C3CC3)NC(=O)NC2=O)cc1 [Example 118, N-{[(4R)-4-Cyclopropyl-2,5-Dioxoimidazolidin-4-Yl]Methyl}-4′-Isopropyl[Biphenyl]-2-Carboxamide]
27 | 9.1 µM | O=C1NC(=O)[C@](CNC(=O)c2ccccc2-c2ccc(CC(F)(F)F)cc2)(C2CC2)N1 [Example 119, N-{[(4R)-4-Cyclopropyl-2,5-Dioxoimidazolidin-4-Yl]Methyl}-4′-(2,2,2-Trifluoroethyl)[Biphenyl]-2-Carboxamide]
28 | 35 µM | CC(C)(c1ccc(-c2ccccc2C(=O)NC[C@@]2(C3CC3)NC(=O)NC2=O)cc1)C(F)(F)F [Example 120, N-{[(4R)-4-Cyclopropyl-2,5-Dioxoimidazolidin-4-Yl]Methyl}-4′-(1,1,1-Trifluoro-2-Methylpropan-2-Yl)[Biphenyl]-2-Carboxamide]
29 | 7.9 µM | O=C1NC(=O)[C@](CNC(=O)c2ccccc2-c2ccc(C(F)F)cc2)(C2CC2)N1 [Example 122, N-{[(4R)-4-Cyclopropyl-2,5-Dioxoimidazolidin-4-Yl]Methyl}-4′-(Difluoromethyl)[Biphenyl]-2-Carboxamide]
30 | 8.7 µM | CC(F)(F)c1ccc(-c2ccccc2C(=O)NC[C@@]2(C3CC3)NC(=O)NC2=O)cc1 [Example 125, N-{[(4R)-4-Cyclopropyl-2,5-Dioxoimidazolidin-4-Yl]Methyl}-4′-(1,1-Difluoroethyl)[Biphenyl]-2-Carboxamide]
31 | 13 µM | O=C1NC(=O)[C@](CNC(=O)c2ccccc2-c2ccc(OC(F)F)cc2)(C2CC2)N1 [Example 127, N-{[(4R)-4-Cyclopropyl-2,5-Dioxoimidazolidin-4-Yl]Methyl}-4′-(Difluoromethoxy)[Biphenyl]-2-Carboxamide]
32 | 8.7 µM | O=C1NC(=O)[C@](CNC(=O)c2ccccc2-c2ccc(F)cc2)(C2CC2)N1 [Example 129, N-{[(4R)-4-Cyclopropyl-2,5-Dioxoimidazolidin-4-Yl]Methyl}-4′-Fluoro[Biphenyl]-2-Carboxamide]
33 | 17.3 µM | COc1ccc(-c2ccccc2C(=O)NC[C@@]2(C3CC3)NC(=O)NC2=O)cc1 [Example 130, N-{[(4R)-4-Cyclopropyl-2,5-Dioxoimidazolidin-4-Yl]Methyl}-4′-Methoxy[Biphenyl]-2-Carboxamide]

— patent publication US12398120B2, “Substituted hydantoinamides as ADAMTS7 antagonists” (BAYER AKTIENGESELLSCHAFT, priority 2019, dated 2025)
